target: T1, Full length human recombinant HDAC8 protein (Homo sapiens, UniProt Q9BY41); assay: In vitro histone deacetylase assay: enzymatic HDAC8 electrophoretic mobility shift assay; assay type: biochemical; settings: not given
T1 construct: Full length human recombinant HDAC8 protein was expressed in baculoviral system; made in house
T1 sequence (Q9BY41 1-377): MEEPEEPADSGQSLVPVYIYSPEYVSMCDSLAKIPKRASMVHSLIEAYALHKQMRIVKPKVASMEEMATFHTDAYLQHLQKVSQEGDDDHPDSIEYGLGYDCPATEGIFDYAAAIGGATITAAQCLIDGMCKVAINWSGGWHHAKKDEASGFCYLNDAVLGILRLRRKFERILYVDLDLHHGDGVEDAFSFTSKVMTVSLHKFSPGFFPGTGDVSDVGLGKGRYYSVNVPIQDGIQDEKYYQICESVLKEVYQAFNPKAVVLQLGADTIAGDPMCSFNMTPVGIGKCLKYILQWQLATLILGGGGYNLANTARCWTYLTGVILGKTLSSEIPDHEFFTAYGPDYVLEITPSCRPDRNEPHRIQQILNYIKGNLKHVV
Method: The enzymatic HDAC8 assay was performed using electrophoretic mobility shift assay. Full length human recombinant HDAC8 protein was expressed in baculoviral system and purified by affinity chromatography. The enzymatic reactions were assembled in 384 well plates in a total volume of 25 μL in a reaction buffer composing: 100 mM HEPES, pH7.5, 25 mM KCl, 0.1% bovine serum albumin, 0.01% Triton X-100, 1% DMSO (from compounds) 2 μM of the fluorescently labeled peptide substrate and enzyme. The enzyme was added at a final concentration of 1 nM. The peptide substrate RHKK(Ac)—NH2 was used. The compounds were tested at 12 concentrations spaced by 3× dilution intervals. Negative control samples (0%-inhibition in the absence of inhibitor) and positive control samples (100%-inhibition) were assembled in replicates of four in each assay plate. The reactions were incubated at 25° C. and quenched by the addition of 45 μL of termination buffer (100 mM HEPES, pH 7.5, 0.01% Triton X-100, 0.05% SDS).
The terminated assay plates were analyzed on LabChip® 3000 microfluidic electrophoresis instrument (Perkin Elmer/Caliper Life Sciences). The fluorescence intensity of the electrophoretically separated de-acetylated product and substrate peptide was measured. Activity in each sample was determined as the product to sum ratio (PSR): P/(S+P), where P is the peak height of the product peptide and S is the peak height of the substrate peptide. Percent inhibition (Pinh) is determined using the following equation: Pinh=(PSR0%−PSRinh)/(PSR0%−PSR100%)*100, where PSRinh is the product sum ratio in the presence of inhibitor, PSR0% is the average product sum ration in the absence of inhibitor and PSR100% is the average product sum ratio in 100%-inhibition control samples. The IC50 values of inhibitors were determined by fitting the %-inhibition curves with 4 parameter dose-response model using XLfit 4 software.

| SMILES | IC50 [nM] |
| --- | --- |
| CN(C(=O)CN1C(=O)COc2ccc(C(=O)NO)cc21)C1CC1 [Compound I-51, 4-(2-(cyclopropyl(methyl)amino)-2-oxoethyl)-N-hydroxy-3-oxo-3,4-dihydro-2H-benzo[b][1,4]oxazine-6-carboxamide] | 100 to 1000 |

same assay, conditions: electrophoretic mobility shift assay; enzyme 1 nM; 2 μM fluorescently labeled peptide substrate RHKK(Ac)-NH2; 25° C.; 12 concentrations; read-out: HDAC8 IC50

| SMILES | IC50 [nM] |
| --- | --- |
| O=C(NO)c1ccc2c(c1)N(CC1CCOCC1)C(=O)CO2 [Compound I-48, N-hydroxy-3-oxo-4-((tetrahydro-2H-pyran-4-yl)methyl)-3,4-dihydro-2H-benzo[b][1,4]oxazine-6-carboxamide] | 100 to 1000 |
| O=C(NO)c1ccc2c(c1)N(CC1CCS(=O)(=O)CC1)C(=O)CO2 [Compound I-49, 4-((1,1-dioxidotetrahydro-2H-thiopyran-4-yl)methyl)-N-hydroxy-3-oxo-3,4-dihydro-2H-benzo[b][1,4]oxazine-6-carboxamide] | 100 to 1000 |
| O=C(NO)c1ccc2c(c1)N(CCN1CCCS1(=O)=O)C(=O)CO2 [Compound I-52, 4-(2-(1,1-dioxidoisothiazolidin-2-yl)ethyl)-N-hydroxy-3-oxo-3,4-dihydro-2H-benzo[b][1,4]oxazine-6-carboxamide] | 100 to 1000 |
| O=C(NO)c1ccc2c(c1)N(CCOc1ccc(C(F)(F)F)cc1)C(=O)CO2 [Compound I-55, N-hydroxy-3-oxo-4-(2-(4-(trifluoromethyl)phenoxy)ethyl)-3,4-dihydro-2H-benzo[b][1,4]oxazine-6-carboxamide] | 25 to 100 |
| CN(C)S(=O)(=O)c1ccc(OCCN2C(=O)COc3ccc(C(=O)NO)cc32)cc1 [Compound I-56, 4-(2-(4-(N,N-dimethylsulfamoyl)phenoxy)ethyl)-N-hydroxy-3-oxo-3,4-dihydro-2H-benzo[b][1,4]oxazine-6-carboxamide] | 25 to 100 |
| CC(C)CN1C(=O)COc2ccc(C(=O)NO)cc21 [Compound I-57, N-hydroxy-4-isobutyl-3-oxo-3,4-dihydro-2H-benzo[b][1,4]oxazine-6-carboxamide] | 100 to 1000 |
| O=C(NO)c1ccc2c(c1)N(Cc1ccccn1)C(=O)CO2 [Compound I-61, N-hydroxy-3-oxo-4-(pyridin-2-ylmethyl)-3,4-dihydro-2H-benzo[b][1,4]oxazine-6-carboxamide] | 100 to 1000 |
| COc1ccccc1CN1C(=O)COc2ccc(C(=O)NO)cc21 [Compound I-63, N-hydroxy-4-(2-methoxybenzyl)-3-oxo-3,4-dihydro-2H-benzo[b][1,4]oxazine-6-carboxamide] | 100 to 1000 |
| O=C(NO)c1ccc2c(c1)N(Cc1ccccc1C(F)(F)F)C(=O)CO2 [Compound I-65, N-hydroxy-3-oxo-4-(2-(trifluoromethyl)benzyl)-3,4-dihydro-2H-benzo[b][1,4]oxazine-6-carboxamide] | 100 to 1000 |
| O=C(NO)c1ccc2c(c1)N(Cc1ccccc1OC(F)(F)F)C(=O)CO2 [Compound I-66, N-hydroxy-3-oxo-4-(2-(trifluoromethoxy)benzyl)-3,4-dihydro-2H-benzo[b][1,4]oxazine-6-carboxamide] | 100 to 1000 |
| CC(c1ccccc1)N1C(=O)COc2ccc(C(=O)NO)cc21 (centres unmarked) [Compound I-67, N-hydroxy-3-oxo-4-(1-phenylethyl)-3,4-dihydro-2H-benzo[b][1,4]oxazine-6-carboxamide] | 25 to 100 |
| O=C(NO)c1ccc2c(c1)N(Cc1ccccc1F)C(=O)CO2 [Compound I-69, 4-(2-fluorobenzyl)-N-hydroxy-3-oxo-3,4-dihydro-2H-benzo[b][1,4]oxazine-6-carboxamide] | < 25 |
| CC(C)(C)c1ccc(CN2C(=O)COc3ccc(C(=O)NO)cc32)cc1 [Compound I-70, 4-(4-(tert-butyl)benzyl)-N-hydroxy-3-oxo-3,4-dihydro-2H-benzo[b][1,4]oxazine-6-carboxamide] | < 25 |
| O=C(NO)c1ccc2c(c1)N(Cc1ccc(F)c(F)c1)C(=O)CO2 [Compound I-71, 4-(3,4-difluorobenzyl)-N-hydroxy-3-oxo-3,4-dihydro-2H-benzo[b][1,4]oxazine-6-carboxamide] | < 25 |
| Cc1ccc(C(F)(F)F)cc1CN1C(=O)COc2ccc(C(=O)NO)cc21 [Compound I-72, N-hydroxy-4-(2-methyl-5-(trifluoromethyl)benzyl)-3-oxo-3,4-dihydro-2H-benzo[b][1,4]oxazine-6-carboxamide] | < 25 |
| O=C(NO)c1ccc2c(c1)N(Cc1cc(C(F)(F)F)ccc1F)C(=O)CO2 [Compound I-73, 4-(2-fluoro-5-(trifluoromethyl)benzyl)-N-hydroxy-3-oxo-3,4-dihydro-2H-benzo[b][1,4]oxazine-6-carboxamide] | < 25 |

| SMILES | IC50 [nM] |
| --- | --- |
| O=C(NO)c1ccc2c(c1)N(Cc1cccc(-c3ccccc3)c1)C(=O)CO2 [Compound I-75, 4-([1,1′-biphenyl]-3-ylmethyl)-N-hydroxy-3-oxo-3,4-dihydro-2H-benzo[b][1,4]oxazine-6-carboxamide] | < 25 |
| CCCCCN1CCOc2ccc(C(=O)NO)cc21 [Compound I-78, N-hydroxy-4-pentyl-3,4-dihydro-2H-benzo[b][1,4]oxazine-6-carboxamide] | 25 to 100 |
| O=C(NO)c1ccc2c(c1)N(Cc1ccc(C(F)(F)F)cc1)CCS2(=O)=O [Compound I-79, N-hydroxy-4-(4-(trifluoromethyl)benzyl)-3,4-dihydro-2H-benzo[b][1,4]thiazine-6-carboxamide 1,1-dioxide] | < 25 |
| COc1ccc(CN2CCS(=O)(=O)c3cc(C(=O)NO)ccc32)cc1 [Compound I-80, N-hydroxy-4-(4-methoxybenzyl)-3,4-dihydro-2H-benzo[b][1,4]thiazine-7-carboxamide-1,1-dioxide] | 100 to 1000 |
| O=C(NO)c1ccc2c(c1)N(Cc1cccc(C(F)(F)F)c1)CCS2(=O)=O [Compound I-81, N-hydroxy-4-(3-(trifluoromethyl)benzyl)-3,4-dihydro-2H-benzo[b][1,4]thiazine-6-carboxamide-1,1-dioxide] | < 25 |
| CC1CN(Cc2ccccc2)c2cc(C(=O)NO)ccc2O1 (centres unmarked) [Compound I-83, 4-benzyl-N-hydroxy-2-methyl-3,4-dihydro-2H-benzo[b][1,4]oxazine-6-carboxamide] | 100 to 1000 |
| COc1ccc(CN2CC(C)Oc3ccc(C(=O)NO)cc32)cc1 (centres unmarked) [Compound I-84, N-hydroxy-4-(4-methoxybenzyl)-2-methyl-3,4-dihydro-2H-benzo[b][1,4]oxazine-6-carboxamide] | 25 to 100 |
| CC1CN(Cc2ccc(S(C)(=O)=O)cc2)c2cc(C(=O)NO)ccc2O1 (centres unmarked) [Compound I-85, N-hydroxy-2-methyl-4-(4-(methylsulfonyl)benzyl)-3,4-dihydro-2H-benzo[b][1,4]oxazine-6-carboxamide] | 100 to 1000 |
| O=C(NO)c1ccc2c(c1)N(S(=O)(=O)c1ccccc1)CCO2 [Compound I-86, N-hydroxy-4-(phenylsulfonyl)-3,4-dihydro-2H-benzo[b][1,4]oxazine-6-carboxamide] | 100 to 1000 |
| COc1ccc(S(=O)(=O)N2CCOc3ccc(C(=O)NO)cc32)cc1 [Compound I-87, N-hydroxy-4-((4-methoxyphenyl)sulfonyl)-3,4-dihydro-2H-benzo[b][1,4]oxazine-6-carboxamide] | 100 to 1000 |
| O=C(NO)c1ccc2c(c1)N(Cc1ccc(S(=O)(=O)C(F)F)cc1)C(=O)CO2 [Compound I-88, 4-(4-((difluoromethyl)sulfonyl)benzyl)-N-hydroxy-3-oxo-3,4-dihydro-2H-benzo[b][1,4]oxazine-6-carboxamide] | < 25 |
| COc1ccc(CN2C(=O)COc3cc(C(=O)NO)ccc32)cc1 [Compound I-89, N-hydroxy-4-(4-methoxybenzyl)-3-oxo-3,4-dihydro-2H-benzo[b][1,4]oxazine-7-carboxamide] | 100 to 1000 |
| CS(=O)(=O)c1ccc(CN2C(=O)COc3cc(C(=O)NO)ccc32)cc1 [Compound I-90, N-hydroxy-4-(4-(methylsulfonyl)benzyl)-3-oxo-3,4-dihydro-2H-benzo[b][1,4]oxazine-7-carboxamide] | 100 to 1000 |
| COc1ccc(CN2C(=O)C(C)Oc3cc(C(=O)NO)ccc32)cc1 (centres unmarked) [Compound I-91, N-hydroxy-4-(4-methoxybenzyl)-2-methyl-3-oxo-3,4-dihydro-2H-benzo[b][1,4]oxazine-7-carboxamide] | 100 to 1000 |
| CC1Oc2cc(C(=O)NO)ccc2N(Cc2ccc(S(C)(=O)=O)cc2)C1=O (centres unmarked) [Compound I-92, N-hydroxy-2-methyl-4-(4-(methylsulfonyl)benzyl)-3-oxo-3,4-dihydro-2H-benzo[b][1,4]oxazine-7-carboxamide] | 100 to 1000 |
